Data as given in patent US11439641B2, “Pyrimidine JAK inhibitors for the treatment of skin diseases” (THERAVANCE BIOPHARMA R&D IP, LLC, priority 2019, dated 2022).
Values after ≈ are worked out from the molar mass of the structure shown.

Columns and labels:
JAK1 = JAK1 (Homo sapiens (Human), UniProt P23458); assay: Biochemical JAK and Tyk2 Kinase Assays (LanthaScreen), JAK1; conditions: 25 μM ATP (Km), pIC50 converted to pKi by Cheng-Prusoff
Method: (§1) Assay 1: Biochemical JAK and Tyk2 Kinase Assays
(§2) A panel of four LanthaScreen JAK biochemical assays (JAK1, 2, 3 and Tyk2) were carried in a common kinase reaction buffer (50 mM HEPES, pH 7.5, 0.01% Brij-35, 10 mM MgCl2, and 1 mM EGTA). Recombinant GST-tagged JAK enzymes and a GFP-tagged STAT1 peptide substrate were obtained from Life Technologies.
(§3) Serially or discretely diluted compounds were pre-incubated with each of the four JAK enzymes and the substrate in white 384-well microplates (Corning) at ambient temperature for 1 h. ATP was subsequently added to initiate the kinase reactions in 10 μL total volume, with 1% DMSO. The final enzyme concentrations for JAK1, 2, 3 and Tyk2 are 4.2 nM, 0.1 nM, 1 nM, and 0.25 nM respectively; the corresponding Km ATP concentrations used are 25 μM, 3 μM, 1.6 μM, and 10 μM; while the substrate concentration is 200 nM for all four assays. Kinase reactions were allowed to proceed for 1 hour at ambient temperature before a 10 μL preparation of EDTA (10 mM final concentration) and Tb-anti-pSTAT1 (pTyr701) antibody (Life Technologies, 2 nM final concentration) in TR-FRET dilution buffer (Life Technologies) was added. The plates were allowed to incubate at ambient temperature for 1 h before being read on the EnVision reader (Perkin Elmer). Emission ratio signals (520 nm/495 nm) were recorded and utilized to calculate the percent inhibition values based on DMSO and background controls.
(§4) For dose-response analysis, percent inhibition data were plotted vs. compound concentrations, and IC50 values were determined from a 4-parameter robust fit model with the Prism software (GraphPad Software). Results were expressed as pIC50 (negative logarithm of IC50) and subsequently converted to pKi (negative logarithm of dissociation constant, Ki) using the Cheng-Prusoff equation.

[1] = system: IL-2 stimulated pSTAT5 in Tall-1 T cells; assay: Inhibition of IL-2 Stimulated pSTAT5 in Tall-1 T Cells; assay type: cell-based; conditions: Tall-1 human T cell line, IL-2 300 ng/mL, AlphaLisa; read-out: Tall-1 IL2 pSTAT5 (pIC50) (converted)
Method: Assay 2: Inhibition of IL-2 Stimulated pSTAT5 in Tall-1 T Cells
The potency of test compounds for inhibition of interleukin-2 (IL-2) stimulated STATS phosphorylation was measured in the Tall-1 human T cell line (DSMZ) using AlphaLisa. Because IL-2 signals through JAK1/3, this assay provides a measure of JAK1/3 cellular potency.
Phosphorylated STATS was measured via the AlphaLISA SureFire Ultra pSTAT5 (Tyr694/699) kit (PerkinElmer). Human T cells from the Tall-1 cell line were cultured in a 37° C., 5% CO2 humidified incubator in RPMI (Life Technologies) supplemented with 15% Heat Inactivated Fetal Bovine Serum (FBS, Life Technologies), 2 mM Glutamax (Life Technologies), 25 mM HEPES (Life Technologies) and 1× Pen/Strep (Life Technologies). Compounds were serially diluted in DMSO and dispensed acoustically to empty wells. Assay media (phenol red-free DMEM (Life Technologies) supplemented with 10% FBS (ATCC)) was dispensed (4 μL/well) and plates shaken at 900 rpm for 10 mins. Cells were seeded at 45,000 cells/well in assay media (4 μL/well), and incubated at 37° C., 5% CO2 for 1 hour, followed by the addition of IL-2 (R&D Systems; final concentration 300 ng/mL) in pre-warmed assay media (4 μL) for 30 minutes. After cytokine stimulation, cells were lysed with 6 ul of 3× AlphaLisa Lysis Buffer (PerkinElmer) containing 1× PhosStop and Complete tablets (Roche). The lysate was shaken at 900 rpm for 10 minutes at room temperature (RT). Phosphorylated STATS was measured via the pSTAT5 AlphaLisa kit (PerkinElmer). Freshly prepared acceptor bead mixture was dispensed onto lysate (51) under green filtered <100 lux light. Plates were shaken at 900 rpm for 2 mins, briefly spun down, and incubated for 2 hrs at RT in the dark. Donor beads were dispensed (5 μL) under green filtered <100 lux light. Plates were shaken at 900 rpm for 2 minutes, briefly spun down, and incubated overnight at RT in the dark. Luminescence was measured with excitation at 689 nm and emission at 570 nm using an EnVision plate r reader (PerkinElmer) under green filtered <100 lux light.
To determine the inhibitory potency of test compounds in response to IL-2, the average emission intensity of beads bound to pSTAT5 was measured in a human T cell line. IC50 values were determined from analysis of the inhibition curves of signal intensity versus compound concentration. Data are expressed as pIC50 (negative decadic logarithm IC50) values (mean±standard deviation).

physchem = conditions: thermodynamic from solid
Method: Assay 6: Solubility Assay in Organic Excipients
The purpose of this assay was to quantify the solubility of test compounds in different organic excipients such as diisopropyl adipate, medium chain triglycerides (MCT), propylene glycol, and polyethylene glycol. The assay required 80 μL of 100 mM DMSO test compound solution per desired excipient in addition to 40 μL required to make a test standard.
The standard was created by diluting 40 μL of 100 mM DMSO compound stock solution into 160 μL of methanol and was shaken for five minutes to ensure solution uniformity. […] This 20,000 μM solution was run on an Agilent 1260 LC-MS system by injecting 0.2 μL in order to obtain the peak area. For the test solutions, 80 μL of 100 mM DMSO compound stock solution, per excipient, were dried down into a powder overnight. Once in powder form, 400 μL of the desired excipient was added to the powder and allowed to shake vigorously for four hours. The maximum theoretical concentration for this sample solution was 20,000 μM. After four hours of shaking, the samples were centrifuged for 10 minutes at 3,000 RPM before injecting 0.2 μL on the same Agilent 1260 LC-MS system to obtain the peak area.

JAK3 = JAK3 (Homo sapiens (Human), UniProt P52333); assay: Biochemical JAK and Tyk2 Kinase Assays (LanthaScreen), JAK3; conditions: 1.6 μM ATP (Km); pIC50 converted to pKi by Cheng-Prusoff; read-out: JAK 3 (pKi) (converted)
Method: as §1, §2, §3, §4

Caco-2 cell monolayer = assay: Caco-2 Permeation Assay; assay type: in vitro ADME; conditions: Papp, 5 μM compound; for Cacoverap Kp 10^−6 cm/sec: A→B in the presence of 25 μM verapamil (P-gp inhibitor); for Caco Kp 10^−6 cm/sec: apical to basal (A→B)
Method: Assay 3: Caco-2 Permeation Assay
The Caco 2 permeability assay was used as a surrogate for assessment of skin permeability. This assay measures the in vitro permeability across a monolayer of Caco-2 cells, which morphologically and functionally resemble the enterocytes of the small intestine.
CacoReady 24-well transwell plates were obtained from ADMEcell (Alameda, Calif.). The compounds were evaluated at a concentration of 5 μM from 10 mM DMSO stock solutions in duplicate (n=2). Transport in the apical to basal (A→B) direction was determined in Caco 2 cell monolayers. From these values the apparent permeability (Papp) was calculated. To inform on the potential of the compound to be a P-gp substrate, the transport of the compound across the Caco-2 cell monolayer was also determined in the presence of 25 μM of the known P-gp inhibitor verapamil (Yusa and Tsuruo et al., Cancer Research, vol. 49, no. 18, 1989, pp. 5002-06).
Caco-2 culture media consisted of standard filtered DMEM, FCS 10%, L-Glutamine 1%, and PenStrep 1%. The experiment was conducted at 37° C. and in a CO2 (5%) incubator. The basal assay plate was prepared by adding 750 pt of transport buffer to A→B wells. A CacoReady™ plate was prepared by removing the Caco-2 media from the apical wells and replacing with fresh transport media (200 pt repeated for a total of 3 washes). Blank media (200 μL) was then replaced with diluted compound. To begin the incubation, the basal plate was removed from the incubator and the apical section was added on top of it. Samples were collected from the apical and basal compartments for time zero (t0). Samples were collected again after 120 minutes (t120) from the apical and basal compartments. All samples were diluted and prepared for bioanalysis by LC-MS/MS. The permeability coefficients (Papp, mean A to B) and (Papp, mean A to B+Verapamil) in cm/sec were calculated as dQ (flux)/(dt×Area×concentration).
In this assay, a compound with a Papp value of more than about 12×10−6 cm/sec is considered to have high permeability.

[2] = oil or lipid, Solubility in MCT (mg/mL)
[3] = organic solvent or mixture, Solubility in Diisopropyl adipate (mg/mL)
[4] = organic solvent or mixture, Solubility in PEG400 (mg/mL)
[5] = organic solvent or mixture, Solubility in Propylene glycol (mg/mL)

Sequence of JAK1 (P23458 whole entry): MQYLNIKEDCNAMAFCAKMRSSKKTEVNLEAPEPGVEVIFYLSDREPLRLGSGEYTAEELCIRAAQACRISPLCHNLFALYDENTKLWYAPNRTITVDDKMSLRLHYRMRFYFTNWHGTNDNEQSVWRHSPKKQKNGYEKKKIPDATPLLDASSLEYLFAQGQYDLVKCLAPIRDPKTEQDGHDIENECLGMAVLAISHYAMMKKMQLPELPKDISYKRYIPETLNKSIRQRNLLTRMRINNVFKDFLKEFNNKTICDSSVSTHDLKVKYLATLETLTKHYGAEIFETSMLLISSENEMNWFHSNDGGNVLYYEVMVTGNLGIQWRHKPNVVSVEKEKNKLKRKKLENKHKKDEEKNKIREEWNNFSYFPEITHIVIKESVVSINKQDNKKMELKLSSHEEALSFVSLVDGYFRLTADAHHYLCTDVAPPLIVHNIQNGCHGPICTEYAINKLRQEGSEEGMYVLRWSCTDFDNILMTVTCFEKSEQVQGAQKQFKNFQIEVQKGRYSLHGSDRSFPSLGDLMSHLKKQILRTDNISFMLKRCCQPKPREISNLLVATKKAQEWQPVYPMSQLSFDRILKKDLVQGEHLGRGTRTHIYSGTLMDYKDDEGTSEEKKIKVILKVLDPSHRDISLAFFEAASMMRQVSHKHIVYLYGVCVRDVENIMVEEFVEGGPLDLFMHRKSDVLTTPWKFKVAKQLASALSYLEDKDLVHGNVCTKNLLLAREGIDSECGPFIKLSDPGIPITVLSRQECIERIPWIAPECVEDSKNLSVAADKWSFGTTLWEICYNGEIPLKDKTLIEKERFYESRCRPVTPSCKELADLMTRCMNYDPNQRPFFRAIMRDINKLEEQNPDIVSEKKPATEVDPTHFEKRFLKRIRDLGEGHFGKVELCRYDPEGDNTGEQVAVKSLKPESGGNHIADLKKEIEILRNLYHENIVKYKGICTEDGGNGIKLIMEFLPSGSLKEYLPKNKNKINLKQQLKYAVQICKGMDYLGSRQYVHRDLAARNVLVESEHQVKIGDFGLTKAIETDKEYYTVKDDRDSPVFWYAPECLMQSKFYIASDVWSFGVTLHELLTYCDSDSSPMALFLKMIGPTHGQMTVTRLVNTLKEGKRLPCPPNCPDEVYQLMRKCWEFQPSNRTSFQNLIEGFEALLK
Sequence of JAK3 (P52333 whole entry): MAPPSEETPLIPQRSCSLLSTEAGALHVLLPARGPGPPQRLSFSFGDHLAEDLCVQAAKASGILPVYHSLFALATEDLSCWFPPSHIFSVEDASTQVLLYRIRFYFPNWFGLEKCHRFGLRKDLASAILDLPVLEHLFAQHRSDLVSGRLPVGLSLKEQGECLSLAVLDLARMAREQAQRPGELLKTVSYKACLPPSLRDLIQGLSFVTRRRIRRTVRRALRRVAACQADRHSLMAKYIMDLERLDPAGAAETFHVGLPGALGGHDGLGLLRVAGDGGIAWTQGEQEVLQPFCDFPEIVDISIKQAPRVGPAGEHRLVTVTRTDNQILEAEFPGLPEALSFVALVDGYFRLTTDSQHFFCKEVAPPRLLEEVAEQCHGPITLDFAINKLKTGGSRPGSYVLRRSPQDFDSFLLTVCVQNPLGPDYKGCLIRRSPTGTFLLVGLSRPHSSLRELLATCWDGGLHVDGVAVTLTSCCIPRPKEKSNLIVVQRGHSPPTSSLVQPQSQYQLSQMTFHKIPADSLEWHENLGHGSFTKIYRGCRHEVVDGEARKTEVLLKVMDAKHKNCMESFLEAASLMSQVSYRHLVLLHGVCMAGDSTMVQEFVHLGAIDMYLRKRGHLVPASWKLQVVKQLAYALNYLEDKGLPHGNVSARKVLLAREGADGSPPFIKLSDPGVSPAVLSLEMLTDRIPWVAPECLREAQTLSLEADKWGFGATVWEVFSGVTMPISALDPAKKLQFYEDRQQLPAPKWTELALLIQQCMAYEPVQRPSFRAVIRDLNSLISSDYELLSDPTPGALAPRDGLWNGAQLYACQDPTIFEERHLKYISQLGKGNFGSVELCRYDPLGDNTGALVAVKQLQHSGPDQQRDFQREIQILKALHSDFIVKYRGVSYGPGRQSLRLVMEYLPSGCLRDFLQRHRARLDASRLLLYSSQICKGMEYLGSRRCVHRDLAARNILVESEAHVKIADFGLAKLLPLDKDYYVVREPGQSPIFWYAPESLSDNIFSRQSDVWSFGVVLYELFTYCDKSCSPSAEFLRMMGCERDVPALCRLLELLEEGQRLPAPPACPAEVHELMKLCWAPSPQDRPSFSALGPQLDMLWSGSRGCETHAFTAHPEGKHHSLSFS

Row | SMILES | JAK 1 (pKi) (JAK1) | IC50 [1] | solubility at 4 h (physchem; [2]) | solubility at 4 h (physchem; [3]) | solubility at 4 h (physchem; [4]) | solubility at 4 h (physchem; [5]) | Ki (JAK3) | Cacoverap Kp 10^−6 cm/sec (Caco-2 cell monolayer) | Caco Kp 10^−6 cm/sec (Caco-2 cell monolayer) | Ki (JAK1; read-out: JAK 1 (pKi) (converted))
1 | CCS(=O)(=O)N1[C@@H]2CCC[C@H]1C[C@H](N(C)c1nc(Nc3cc(C)[nH]n3)cc(C3CCOCC3)n1)C2 [Compound 1, N^2-((1R,3s,5S)-9-(ethylsulfonyl)-9-azabicyclo[3.3.1]nonan-3-yl)-N^2-methyl-N^4-(5-methyl-1H-pyrazol-3-yl)-6-(tetrahydro-2H-pyran-4-yl)pyrimidine-2,4-diamine] | A (A represents a pKi value ≥10 (Ki≤0.1 nM)) | ≤ 10 nM | < 5000 µg/mL | > 10000 µg/mL | > 10000 µg/mL | > 10000 µg/mL | 0.1 to 1 nM | A (A represents a value above 35×10^−6 cm/sec) | A (A represents a value above 30×10^−6 cm/sec) | –
2 | Cc1cc(Nc2cc(O[C@@H]3CCOC3)nc(N(C)[C@@H]3C[C@H]4CCC[C@@H](C3)N4CC(=O)N3CCCC3)n2)n[nH]1 [Compound 19] | A (A represents a pKi value ≥10 (Ki≤0.1 nM)) | ≤ 10 nM | < 5000 µg/mL | < 5000 µg/mL | < 5000 µg/mL | < 5000 µg/mL | 0.1 to 1 nM | – | – | –
3 | CCNC(=O)CN1[C@@H]2CCC[C@H]1C[C@H](N(C)c1nc(Nc3cc(C)[nH]n3)cc(O[C@@H]3CCOC3)n1)C2 [Compound 20] | A (A represents a pKi value ≥10 (Ki≤0.1 nM)) | ≤ 10 nM | < 5000 µg/mL | > 10000 µg/mL | > 10000 µg/mL | > 10000 µg/mL | 0.1 to 1 nM | B (B represents a value between 20×10^−6 and 35×10^−6 cm/sec) | B (B represents a value between 15×10^−6 and 30×10^−6 cm/sec) | –
4 | CCOC(=O)N1[C@@H]2CCC[C@H]1C[C@H](N(C)c1nc(Nc3cc(C)[nH]n3)cc(O[C@@H]3CCOC3)n1)C2 [Compound 24] | A (A represents a pKi value ≥10 (Ki≤0.1 nM)) | 10 to 31.6 nM | < 5000 µg/mL | < 5000 µg/mL | < 5000 µg/mL | < 5000 µg/mL | 0.1 to 1 nM | – | – | –
5 | Cc1cc(Nc2cc(O[C@@H]3CCOC3)nc(N(C)[C@@H]3C[C@H]4CCC[C@@H](C3)N4C(=O)CC3CC3)n2)n[nH]1 [Compound 26] | A (A represents a pKi value ≥10 (Ki≤0.1 nM)) | ≤ 10 nM | < 5000 µg/mL | < 5000 µg/mL | < 5000 µg/mL | < 5000 µg/mL | 0.1 to 1 nM | – | – | –
6 | COC(=O)N1[C@@H]2CCC[C@H]1C[C@H](N(C)c1nc(Nc3cc(C)[nH]n3)cc(O[C@H]3CCOC3)n1)C2 [Compound 27] | A (A represents a pKi value ≥10 (Ki≤0.1 nM)) | 10 to 31.6 nM | < 5000 µg/mL | < 5000 µg/mL | < 5000 µg/mL | < 5000 µg/mL | 0.1 to 1 nM | – | – | –
7 | CCC(=O)N1[C@@H]2CCC[C@H]1C[C@H](N(C)c1nc(Nc3cc(C)[nH]n3)cc(O[C@H]3CCOC3)n1)C2 [Compound 28] | A (A represents a pKi value ≥10 (Ki≤0.1 nM)) | ≤ 10 nM | < 5000 µg/mL | 5000 to 10000 µg/mL (≈ 10.6 to 21.3 mM) | 5000 to 10000 µg/mL (≈ 10.6 to 21.3 mM) | > 10000 µg/mL | 0.1 to 1 nM | – | – | –
8 | COCCC(=O)N1[C@@H]2CCC[C@H]1C[C@H](N(C)c1nc(Nc3cc(C)[nH]n3)cc(O[C@H]3CCOC3)n1)C2 [Compound 29] | A (A represents a pKi value ≥10 (Ki≤0.1 nM)) | ≤ 10 nM | < 5000 µg/mL | > 10000 µg/mL | 5000 to 10000 µg/mL (≈ 10 to 20 mM) | > 10000 µg/mL | 0.1 to 1 nM | – | – | –
9 | Cc1cc(Nc2cc(O[C@H]3CCOC3)nc(N(C)[C@@H]3C[C@H]4CCC[C@@H](C3)N4C(=O)CC3CC3)n2)n[nH]1 [Compound 30] | A (A represents a pKi value ≥10 (Ki≤0.1 nM)) | ≤ 10 nM | < 5000 µg/mL | < 5000 µg/mL | < 5000 µg/mL | < 5000 µg/mL | 0.1 to 1 nM | – | – | –
10 | COC(=O)N1[C@@H]2CCC[C@H]1C[C@H](N(C)c1nc(Nc3cc(C)[nH]n3)cc(OC3COC3)n1)C2 [Compound 36] | – | ≤ 10 nM | < 5000 µg/mL | 5000 to 10000 µg/mL (≈ 10.9 to 21.9 mM) | > 10000 µg/mL | > 10000 µg/mL | 1 to 10 nM | B (B represents a value between 20×10^−6 and 35×10^−6 cm/sec) | B (B represents a value between 15×10^−6 and 30×10^−6 cm/sec) | 0.1 to 1 nM
11 | CCNC(=O)CN1[C@@H]2CCC[C@H]1C[C@H](N(C)c1nc(Nc3cc(C)[nH]n3)cc(OC3COC3)n1)C2 [Compound 37] | A (A represents a pKi value ≥10 (Ki≤0.1 nM)) | ≤ 10 nM | < 5000 µg/mL | < 5000 µg/mL | < 5000 µg/mL | < 5000 µg/mL | 0.1 to 1 nM | – | – | –
12 | Cc1cc(Nc2cc(OC3COC3)nc(N(C)[C@@H]3C[C@H]4CCC[C@@H](C3)N4CC(=O)N3CCCC3)n2)n[nH]1 [Compound 38] | A (A represents a pKi value ≥10 (Ki≤0.1 nM)) | ≤ 10 nM | < 5000 µg/mL | < 5000 µg/mL | < 5000 µg/mL | < 5000 µg/mL | 0.1 to 1 nM | – | – | –
